Test results reported in publication PMC6269910 (Molecules, 2013).

Columns and labels:
[1] = tested on: 60 human tumor cell lines; test: NCI60 in vitro cancer screen; assay type: cell-based; conditions: 10 µM; variety of cell lines
Description: The selected compound N-(ethylcarbamothioyl)-4-[5-(4-methylphenyl)-3-(trifluoromethyl)-1H-pyrazol-1-yl]benzenesulfonamide (1a) was screened by the National Institutes of Health (NIH) for anticancer activity against 60 human tumor cell lines. Most of the compounds in the series of structures submitted include one or more functional groups that have been found troublesome to the development of successful drug candidates. In addition, the selection criteria guidance available at the following DTP web site: http://www.dtp.nci.nih.gov/docs/misc/common_files/guidelines.html. For NCI criteria, compounds, which reduce the growth of any one of the cell lines to approximately 32% or less, are passed on for evaluation in the full panel of cell lines over a 5-log dose range.
The methodology of the NCI60 in vitro cancer screen can be found on-line at http://dtp.nci.nih.gov/branches/btb/ivclsp.html and can be reviewed on their web site.

glutathione (GSH) = test: GSH level in liver, kidney, colon, brain; assay type: in vivo, mice; conditions: 72 h
Protocol: (§1) Tissue samples were homogenized with ice-cold 150 mM KCl for the determination of LPO and glutathione (GSH) levels. The LPO levels were assayed by monitoring TBARS formation as described above.

LPO = LPO (TBARS) level in liver, kidney, colon, brain; assay type: in vivo, mice; conditions: 72 h
Protocol: as §1

[2] = target: T1, HCV NS5B RNA dependent RNA polymerase (Hepatitis C virus genotype 1b, UniProt P26663); test: NS5B inhibition assay (primer dependent elongation, poly rA-U12); assay type: biochemical; conditions: read-out: Anti-NS5B Activity (% Inh., 100 µM)
T1 construct: HCV NS5B RNA dependent RNA polymerase activity
In short: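 Primer-dependent elongation on poly rA-U12 by HCV genotype 1b NS5B RdRp; compounds from DMSO stocks, preliminary screen at 100 μM. Activity expressed relative to a DMSO-matched no-inhibitor control set at 100%.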

[3] = tested on: lipid peroxidation in stomach; test: Lipid peroxidation in stomach (TBARS); assay type: in vivo, mice; conditions: 100 mg/kg, 8 h after analgesic test
[4] = tested on: superoxide dismutase (SOD); test: SOD activity in liver, kidney, colon, brain; assay type: in vivo, mice; conditions: 72 h
Protocol: SOD is a major antioxidant enzyme found in cells, which protect cells from oxidative stress. SOD activity in the tissue samples was measured according to the previously described method.

stomach = test: Gastric-ulcerogenic effect (ulcer score); assay type: in vivo, mice; conditions: 200 mg/kg p.o.; animals with lesions/animals
[5] = tested on: carrageenan-induced hind paw edema; test: Carrageenan-induced hind paw edema model; assay type: in vivo, mice

T1 sequence (P26663 2420-3010): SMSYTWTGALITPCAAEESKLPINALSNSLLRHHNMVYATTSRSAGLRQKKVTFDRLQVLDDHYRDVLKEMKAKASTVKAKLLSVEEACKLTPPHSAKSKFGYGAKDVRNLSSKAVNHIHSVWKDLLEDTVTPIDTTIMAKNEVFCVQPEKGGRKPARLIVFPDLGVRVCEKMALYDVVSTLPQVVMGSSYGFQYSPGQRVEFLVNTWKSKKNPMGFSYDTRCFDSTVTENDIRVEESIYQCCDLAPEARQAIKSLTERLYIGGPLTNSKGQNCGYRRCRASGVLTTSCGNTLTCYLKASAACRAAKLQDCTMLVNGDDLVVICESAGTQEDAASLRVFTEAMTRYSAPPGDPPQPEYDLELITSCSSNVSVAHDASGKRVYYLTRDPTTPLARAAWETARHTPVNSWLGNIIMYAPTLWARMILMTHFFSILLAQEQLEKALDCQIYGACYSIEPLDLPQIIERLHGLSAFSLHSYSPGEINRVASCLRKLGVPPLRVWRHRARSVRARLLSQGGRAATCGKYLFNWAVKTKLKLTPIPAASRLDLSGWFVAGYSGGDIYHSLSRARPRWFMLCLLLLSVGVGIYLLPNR

For CCNC(=S)NS(=O)(=O)c1ccc(-n2nc(C(F)(F)F)cc2-c2ccc(C)cc2)cc1 [Compound 1a, N-(Ethylcarbamothioyl)-4-[5-(4-methylphenyl)-3-(trifluoromethyl)-1H-pyrazol-1-yl] benzenesulfonamide], the cell growth inhibition [1] was “negligible”, the GSH (glutathione (GSH); brain, 100 mg/kg oral) was 18.7 ± 5.52 µmol/g tissue and the GSH (glutathione (GSH); brain, 200 mg/kg oral) was 18.74 ± 3.03 µmol/g tissue. For the same molecule, the GSH (glutathione (GSH); colon, 100 mg/kg oral) was 27.22 ± 2.41 µmol/g tissue, the GSH (glutathione (GSH); colon, 200 mg/kg oral) was 25.16 ± 2.76 µmol/g tissue and the GSH (glutathione (GSH); kidney, 100 mg/kg oral) was 17.02 ± 5.23 µmol/g tissue. The GSH (glutathione (GSH); kidney, 200 mg/kg oral) was 18.26 ± 3.28 µmol/g tissue, the GSH (glutathione (GSH); liver, 100 mg/kg oral) was 22.68 ± 1.20 µmol/g tissue and the GSH (glutathione (GSH); liver, 200 mg/kg oral) was 24.58 ± 4.47 µmol/g tissue. It also gave an LPO (LPO; brain, 100 mg/kg oral) of 8.36 ± 2.61 nmol/g tissue, an LPO (LPO; brain, 200 mg/kg oral) of 9.40 ± 2.08 nmol/g tissue and an LPO (LPO; colon, 100 mg/kg oral) of 8.66 ± 2.23 nmol/g tissue. It also gave an LPO (LPO; colon, 200 mg/kg oral) of 11.04 ± 2.11 nmol/g tissue, an LPO (LPO; kidney, 100 mg/kg oral) of 10.96 ± 2.01 nmol/g tissue and an LPO (LPO; kidney, 200 mg/kg oral) of 12.56 ± 2.96 nmol/g tissue. It also gave an LPO (LPO; liver, 100 mg/kg oral) of 9.78 ± 1.30 nmol/gtissue, an LPO (LPO; liver, 200 mg/kg oral) of 13.72 ± 3.05 nmol/gtissue and an inhibition at 100 µM [2] of 49.4%. For the same molecule, the Lipid peroxidation [3] was 387.7 ± 12.8 nmol TBARS/g wet weight, the SOD ([4]; brain, 100 mg/kg oral) was 19.17 ± 7.41 U/g tissue and the SOD ([4]; brain, 200 mg/kg oral) was 19.22 ± 10.76 U/g tissue. For the same molecule, the SOD ([4]; colon, 100 mg/kg oral) was 16.56 ± 4.13 U/g tissue, the SOD ([4]; colon, 200 mg/kg oral) was 21.17 ± 4.15 U/g tissue and the SOD ([4]; kidney, 100 mg/kg oral) was 20.26 ± 8.71 U/g tissue. For the same molecule, the SOD ([4]; kidney, 200 mg/kg oral) was 15.37 ± 7.33 U/g tissue, the SOD ([4]; liver, 100 mg/kg oral) was 21.15 ± 9.98 U/g tissue and the SOD ([4]; liver, 200 mg/kg oral) was 11.72 ± 5.10 U/g tissue. For the same molecule, the melting point was 215 to 218 °C, the Ulcer score (stomach) was 0/5 and the “Swelling in thickness ± SEM” value ([5]; 50 mg/kg per os, 90 min) was 70.0 ± 6.5 × 10^−2 mm. The percent inhibitory activity ([5]; 50 mg/kg per os, 90 min) was 2.7%, the “Swelling in thickness ± SEM” value ([5]; 50 mg/kg per os, 180 min) was 72.0 ± 5.1 × 10^−2 mm and the percent inhibitory activity ([5]; 50 mg/kg per os, 180 min) was 21.7%. The “Swelling in thickness ± SEM” value ([5]; 50 mg/kg per os, 270 min) was 90.0 ± 9.3 × 10^−2 mm, the percent inhibitory activity ([5]; 50 mg/kg per os, 270 min) was 25.6% and the “Swelling in thickness ± SEM” value ([5]; 50 mg/kg per os, 360 min) was 100.0 ± 6.5 × 10^−2 mm. The percent inhibitory activity ([5]; 50 mg/kg per os, 360 min) was 22.4%, the “Swelling in thickness ± SEM” value ([5]; 100 mg/kg per os, 90 min) was 58.1 ± 6.6 × 10^−2 mm and the percent inhibitory activity ([5]; 100 mg/kg per os, 90 min) was 19.4%. The “Swelling in thickness ± SEM” value ([5]; 100 mg/kg per os, 180 min) was 72.9 ± 11.9 × 10^−2 mm, the percent inhibitory activity ([5]; 100 mg/kg per os, 180 min) was 19.7% and the “Swelling in thickness ± SEM” value ([5]; 100 mg/kg per os, 270 min) was 72.7 ± 16.7 × 10^−2 mm. The percent inhibitory activity ([5]; 100 mg/kg per os, 270 min) was 39.5%, the “Swelling in thickness ± SEM” value ([5]; 100 mg/kg per os, 360 min) was 77.9 ± 11.7 × 10^−2 mm and the percent inhibitory activity ([5]; 100 mg/kg per os, 360 min) was 39.7%. For the same molecule, the “Swelling in thickness ± SEM” value ([5]; 200 mg/kg per os, 90 min) was 54.6 ± 7.9 × 10^−2 mm, the percent inhibitory activity ([5]; 200 mg/kg per os, 90 min) was 25.0% and the “Swelling in thickness ± SEM” value ([5]; 200 mg/kg per os, 180 min) was 74.2 ± 8.2 × 10^−2 mm. For the same molecule, the percent inhibitory activity ([5]; 200 mg/kg per os, 180 min) was 19.3%, the “Swelling in thickness ± SEM” value ([5]; 200 mg/kg per os, 270 min) was 117.5 ± 9.8 × 10^−2 mm and the percent inhibitory activity ([5]; 200 mg/kg per os, 270 min) was 2.9%. The “Swelling in thickness ± SEM” value ([5]; 200 mg/kg per os, 360 min) was 97.4 ± 5.6 × 10^−2 mm, the percent inhibitory activity ([5]; 200 mg/kg per os, 360 min) was 24.5% and the “anti-inflammatory activity (in words)” value ([5]; all doses, all measurement intervals) was “moderate-to-good”.
